Reference: US4962203A, “2-substituted quinolines useful as leukotriene antagonists” (Merck Frost Canada, Inc., priority 1989, dated 1990)

Assays:
[1] = system: guinea pig ileum (LTD4 induced contractions); assay: Guinea-pig ileum assay: inhibition of LTD4 induced contractions; set-up: species or system male Hartley strain guinea pigs; conditions: for inhibition at 0.001 µg/mL / inhibition at 0.01 µg/mL / inhibition at 0.1 µg/mL / inhibition at 1 µg/mL / inhibition at 10 µg/mL: Cavia porcellus, LTD4 0.3 ng/mL, read-out: % inhibition of LTD4 induced contractions, G.P. ileum assay; for inhibition at 0.001 µg/mL: drug conc. 0.001 μg/mL; for inhibition at 0.01 µg/mL: drug conc. 0.01 μg/mL; for inhibition at 0.1 µg/mL: drug conc. 0.1 μg/mL; for inhibition at 1 µg/mL: drug conc. 1 μg/mL; for inhibition at 10 µg/mL: drug conc. 10 μg/mL; for ability to inhibit LTD4 contractions of the guinea pig ileum, times greater than the reference compound: relative to the reference compound of Table I
Protocol: Guinea-Pig Ileum Preparation for Evaluation of Antagonists of Leukotriene D4 and Other Mediators
Tissue--Sections of ileum were taken from male Hartley strain guinea pigs (Charles River, U.S.A.) 300 to 500 g which were sacrificed by a blow to the head and exsanguinated. Terminal ileum was removed, cleaned with warm Tyrode's solution and then divided into segments of approximately […]. The segments of ileum were then mounted under 1 g tension in a 20 mL organ bath containing 10 mL of Tyrode's solution with the following composition (mM): NaCl, 137; KCl, 2.7; MgSO4, 7H2 O, 0.8; CaCl2, 1.8; NaH2 PO4, 0.42; NaHCO3, 11.9; Dextrose, 5.6. The bathing solution was continuously aerated with 95% O2 and 5% CO2 and bath temperature was maintained at 37° C. The beta adrenoceptor blocker, timolol (0.5 μg/mL) and the antimuscarinic agent atropine (1.0 μM) were present in the Tyrodeμs solution. Isometric tension changes were recorded using Grass FTO3 force displacement transducers (Grass Instrument G., Quincy, Mass.) connected to a Beckman Type R Dynograph. In order to wash the tissue, the bath solution was automatically aspirated and replaced with a constant volume (10 mL) of fresh solution by means of timer controlled solenoid valves.
After the tissues were stable a standard dose of LTD4 (0.3 ng/mL) was repeatedly added to the bath every 4-5 minutes (min contact, 30 sec wash, 3 min rest) until a consistent response was obtained (minimum of 4 responses). Following each addition of LTD4 the tissue was washed with Tyrode's solution until baseline tension was re-established. After consistent responses were obtained the tissues were used to screen compounds.
Usually, 10 μL of a 10 mg/mL solution of the compound to be tested was added to the bath 30 secs prior to the addition of LTD4. The compound and LTD4 remained in contact with the tissue until the maximum tension was developed (1 min) after which the tissue was washed repeatedly until the baseline was re-established. Percent inhibition relative to the immediately preceding control response was calculated for each dose of test compound. […] Provided the response was inhibited by less than 20%, the tissue was used immediately to evaluate another compound; when the response was inhibited by greater than 20%, cycles of LTD4 alone were added until a consistent response was re-established.

[2] = target: T1, LTD4 binding (Cavia porcellus, UniProt Q2NNR5); assay: LTD4 binding assay; conditions: for IC50: 50% LTD4 bound, unit inferred, read-out: LTD4 binding assay, drug conc. (IC50 values for the numbered examples); for LTD4 binding activity, times greater than the reference compound: relative to the reference compound of Table I
T1 construct: from tissue
T1 sequence (Q2NNR5 1-340): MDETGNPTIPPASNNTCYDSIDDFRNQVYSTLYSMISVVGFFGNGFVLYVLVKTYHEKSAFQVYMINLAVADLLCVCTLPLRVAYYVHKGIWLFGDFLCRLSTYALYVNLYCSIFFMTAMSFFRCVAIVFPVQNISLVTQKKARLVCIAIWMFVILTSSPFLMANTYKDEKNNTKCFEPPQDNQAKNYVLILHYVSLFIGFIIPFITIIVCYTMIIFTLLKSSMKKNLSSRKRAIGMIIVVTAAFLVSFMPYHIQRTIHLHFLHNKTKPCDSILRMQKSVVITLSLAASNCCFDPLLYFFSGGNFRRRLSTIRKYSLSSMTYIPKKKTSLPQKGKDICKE
Protocol: The results for LTD4 binding were determined by the method of S. S. Pong and R. N. DeHaven, Proc. Nat. Acad. Sci. U.S.A., 80, 7415-7419 (1983).
The drug concentration in the LTD4 binding assay for the numbered examples are the IC50 values. The LTD4 binding activity of these ranges from at least 14 (Ex. 85) to at least 214 (Ex. 71) times greater than the reference compound. The actual differences are even greater since an IC50 was not obtained for the reference compound.

Structure (SMILES) | inhibition at 0.001 µg/mL [1] [%] | inhibition at 0.01 µg/mL [1] [%] | inhibition at 0.1 µg/mL [1] [%] | inhibition at 1 µg/mL [1] [%] | inhibition at 10 µg/mL [1] [%] | IC50 [2] [nM] | % LTD4 bound, LTD4 binding assay ([2]; at the drug conc. (IC50)) [%] | ability to inhibit LTD4 contractions of the guinea pig ileum, times greater than the reference compound [1] | LTD4 binding activity, times greater than the reference compound [2] | % LTD4 bound, LTD4 binding assay ([2]; reference compound, drug conc. 3 × 10^-6 (unit not given)) [%]
CC(Oc1cccc(C#Cc2ccc3ccc(Br)cc3n2)c1)C(=O)O (stereo not drawn) | 50 | 91 | 94 | 98 | 97 | 96 | 50 | – | – | –
CC(Oc1cccc(/C=C/c2ccc3ccc(Cl)cc3n2)c1)c1nn[nH]n1 (racemic) [Example 71, 5-(1-(3-(2-(7-chloroquinolin-2-yl)ethenyl)-phenoxy)ethyl)tetrazole] | 67 | 92 | 100 | 98 | 97 | 14 | 50 | over 1000 times | at least 214 times | –
CC(Oc1cccc(OCc2ccc3ccc(Br)cc3n2)c1)C(=O)O (stereo not drawn) [Example 85, 2-(3-(7-bromoquinolin-2-ylmethoxy)phenoxy)propanoic acid] | 0 | 10 | 57 | 93 | 100 | 220 | 50 | about 20 times | at least 14 times | –
CC(Oc1cccc(/C=C/c2ccc3ccc(Cl)cc3n2)c1)C(=O)O (stereo not drawn) | 38 | 94 | 95 | 97 | 94 | – | 50 | – | – | –
CC(Oc1cccc(Sc2ccc3ccc(Cl)cc3n2)c1)C(=O)O (stereo not drawn) [reference compound] | – | – | – | 27 | 89 | – | – | – | – | 76
CC(Oc1cccc(C2CC2c2ccc3ccc(Cl)cc3n2)c1)c1nn[nH]n1 (stereo not drawn) | – | 37 | 87 | 96 | 94 | – | 50 | – | – | –
